Measured values published in BindingDB's records for doi:10.1016/j.bmcl.2018.06.004 (Peking University, 2018).

Tests used:
[1] = Inhibition of trypsin-like activity of 20S proteasome in human K562 cells using Z-LRRaminoluciferin as substrate after 2 hrs by luminescence assay
[2] = Inhibition of PGPH activity of 20S proteasome in human K562 cells using Z-nLPnLDaminoluciferin as substrate after 2 hrs by luminescence assay

IC50 [1]: > 100 µM
IC50 [2]: > 100 µM
Structure (SMILES): CC(C)C[C@H](NC(=O)[C@H](Cc1ccccc1)NC(=O)N1C/C(=C\c2ccc(F)cc2)C(=O)/C(=C/c2ccc(F)cc2)C1)B(O)O
